Assay results: paper PMC9097129, “C-terminal mini-PEGylation of a marine peptide N6 had potent antibacterial and anti-inflammatory properties against Escherichia coli and Salmonella strains in vitro and in vivo” (BMC Microbiology, 2022)

How the values were obtained:
S. pullorum CVCC533 [1] = experiment: Time-killing curves; format: cell-based, Salmonella pullorum; settings: 1 × MIC
Protocol: The sample (100 μL) was taken from each flask at 0, 0.5, 1, 2, 4, 6, 8, 10, 12, and 24 h, respectively and serially diluted for colony counting. The group untreated with peptides was a blank control. PMB and CIP were used as the positive control. Similarly, bacterial cells (1 × 10^5 CFU/mL) were incubated with 3/128, 1/32, 3/64, 1/16, 3/32, 1/8, 3/16, 1/4, 3/8, 1/2, 3/4, 1, 2, 3, and 4 × MIC N6 or N6-COOH-miniPEG. The sample was taken from each flask at 24 h and serially diluted for colony counting.

S. pullorum CVCC533 [2] = experiment: Mouse peritonitis model, survival; format: in vivo, ICR mice
Protocol: (§1) Similarly, after the intraperitoneal injection with S. pullorum CVCC533 (5 × 10^7 CFU/mL, 0.2 mL), the mice were treated with N6 (8 and 10 μmol/kg), N6-COOH-miniPEG (8 and 10 μmol/kg) or CIP (0.8 and 1 μmol/kg) at 0.5 h, respectively. The mice injected with antibiotics or PBS served as the positive and blank control (CK), respectively. Survival of the mice was recorded daily for 7 d.

S. pullorum CVCC533 [3] = experiment: Bacterial translocation, bacterial loads in organs; format: in vivo, mice; parameters: bacteria counted in the organs of mice infected with S. pullorum: unit not given here
Protocol: (§2) The mice (10 mice/group) were challenged with E. coli CVCC195 (1 × 10^9 CFU/mL, 0.2 mL) or S. pullorum CVCC533 (5 × 10^7 CFU/mL, 0.2 mL) by intraperitoneal injection and treated with N6 (4 and 10 μmol/kg) or N6-COOH-miniPEG (4 and 10 μmol/kg). To evaluate bacterial loads in organs, the livers, spleens, kidneys and lungs were removed from the sacrificed mice at 24 h post treatment and homogenized in sterile PBS for E. coli CVCC195 colony counting; similarly, the livers, spleens, kidneys and lungs were removed from the sacrificed mice at 48 h after treatment and homogenized in sterile PBS for S. pullorum CVCC533 colony counting. The uninfected mice served as the blank control (CK); the infected mice treated with PBS were used as the negative control. The mice were sacrificed by neck dislocation under inhaled isoflurane anesthesia (RWD Life Science Co., LTD. Shenzhen, China).

E. coli 0111:B4 LPS = experiment: Endotoxemia mouse model, serum cytokines by ELISA; format: in vivo, mice; parameters: levels of TNF-α in sera: unit not given here; settings: for Decrease of serum IL-1β level / Decrease of serum IL-6 level / Decrease of serum IL-10 level / Decrease of serum TNF-α level: LPS 10 mg/kg i.p., peptides 0.25 μmol/kg, PMB 10 μmol/kg, CIP 5 μmol/kg; for levels of IL-1β in sera / levels of TNF-α in sera: ELISA kit, mean of n = 3
Protocol: The mice (10 mice/group) were injected intraperitoneally with N6 and N6-COOH-miniPEG (0.25 μmol/kg), PMB (10 μmol/kg) or CIP (5 μmol/kg) 0.5 h after challenge with 10 mg/kg E. coli 0111:B4 LPS. Blood was collected in a heparin sodium tube at 2 or 8 h after LPS injection and incubated for 30 min at 37 °C and then overnight at 4 °C. After centrifugation at 3,000 rpm for 10 min at 4 °C, serum was collected from supernatant. The cytokine levels of TNF-α, IL-6, IL-1β and IL-10 in serum were detected by the Jiaxuan Biotech. Co. Ltd. (Beijing, China) using an ELISA. […]

S. pullorum CVCC533 [4] = experiment: Organ injury, histopathology (HE); format: in vivo, mice; settings: 48 h and 4 d post-treatment, peptides 10 μmol/kg, HE staining
Protocol: (§3) The mice were treated with N6 (4 and 10 μmol/kg) and N6-COOH-miniPEG (4 and 10 μmol/kg) after intraperitoneal injection of E. coli CVCC195 for 0.5 and 8 h or S. pullorum CVCC533 for 0.5 h as described above. Livers, spleens, kidneys and lungs were removed from the mice at 24 h and 5 d post-treatment after E. coli CVCC195 injection and at 48 h and 4 d post-treatment after S. pullorum CVCC533 injection, respectively, washed in PBS, fixed in 4% paraformaldehyde at 4 °C for 24 h, and stained with hematoxylin and eosin (HE) for histopathology analysis. Finally, the tissue samples were fixed and observed by the light microscope. The uninfected mice served as the blank control (CK); the infected mice being treated with PBS were used as the negative control.

E. coli CVCC195 [5] = experiment: Mouse peritonitis model, survival; format: in vivo, ICR mice; parameters: survival of mice in E. coli lethal model: unit not given here
Protocol: To evaluate in vivo efficacy of N6 and N6-COOH-miniPEG, the 6-week-old female ICR mice, weight 20 ± 2 g (10 mice/group) were intraperitoneally injected with E. coli CVCC195 or S. pullorum CVCC533 at a concentration of absolute lethal dose (LD100). After the intraperitoneal injection with E. coli CVCC195 (1 × 10^9 CFU/mL, 0.2 mL), the mice were treated with N6 (2 and 4 μmol/kg), N6-COOH-miniPEG (2 and 4 μmol/kg) or PMB (0.125 and 0.25 μmol/kg) at 0.5 h and 8 h, respectively.
as §1

E. coli CVCC195 [6] = experiment: Bacterial translocation, bacterial loads in organs; format: in vivo, mice; parameters: unit not given here; settings: mean of n = 3
Protocol: as §2

E. coli CVCC195 [7] = experiment: Organ injury, histopathology (HE); format: in vivo, mice; settings: 24 h and 5 d post-treatment, peptides 4 μmol/kg, HE staining
Protocol: as §3

[8] = peptides 10 μmol/kg, CIP 1 μmol/kg, 48 h after treatment, versus untreated infected mice

For O=C(O)c1cn(C2CC2)c2cc(N3CCNCC3)c(F)cc2c1=O [CIP], which “Time to kill 99.9% of cells” value (S. pullorum CVCC533 [1]) is on record?
Its value is at most 6 h.

What about the “survival of mice in S. pullorum lethal model” value (S. pullorum CVCC533 [2]; 0.8 μmol/kg, day 0) of the same compound?
Its value is 100.

What about the “survival of mice in S. pullorum lethal model” value (S. pullorum CVCC533 [2]; 0.8 μmol/kg, day 1) of the same compound?
The value was 100.

What about the “survival of mice in S. pullorum lethal model” value (S. pullorum CVCC533 [2]; 0.8 μmol/kg, day 2) of the same compound?
Its value is 100.

And the “survival of mice in S. pullorum lethal model” value (S. pullorum CVCC533 [2]; 0.8 μmol/kg, day 3)?
The value was 100.

What about the “survival of mice in S. pullorum lethal model” value (S. pullorum CVCC533 [2]; 0.8 μmol/kg, day 4) of the same compound?
Its value is 83.3333.

And the “survival of mice in S. pullorum lethal model” value (S. pullorum CVCC533 [2]; 0.8 μmol/kg, day 5)?
Its value is 83.3333.

And the “survival of mice in S. pullorum lethal model” value (S. pullorum CVCC533 [2]; 0.8 μmol/kg, day 6)?
The value was 83.3333.

And the “survival of mice in S. pullorum lethal model” value (S. pullorum CVCC533 [2]; 0.8 μmol/kg, day 7)?
The value was 83.3333.

And the “Survival rate of mice” value (S. pullorum CVCC533 [2]; 1 μmol/kg i.p. at 0.5 h (legend of Fig. 6: 0.5 and 8 h), 7 d)?
Its value is 100%.

What about the “survival of mice in S. pullorum lethal model” value (S. pullorum CVCC533 [2]; 1 μmol/kg, day 0) of the same compound?
The value was 100.

And the “survival of mice in S. pullorum lethal model” value (S. pullorum CVCC533 [2]; 1 μmol/kg, day 1)?
Its value is 100.

What about the “survival of mice in S. pullorum lethal model” value (S. pullorum CVCC533 [2]; 1 μmol/kg, day 2) of the same compound?
Its value is 100.

What about the “survival of mice in S. pullorum lethal model” value (S. pullorum CVCC533 [2]; 1 μmol/kg, day 3) of the same compound?
Its value is 100.

And the “survival of mice in S. pullorum lethal model” value (S. pullorum CVCC533 [2]; 1 μmol/kg, day 4)?
Its value is 100.

And the “survival of mice in S. pullorum lethal model” value (S. pullorum CVCC533 [2]; 1 μmol/kg, day 5)?
Its value is 100.

What about the “survival of mice in S. pullorum lethal model” value (S. pullorum CVCC533 [2]; 1 μmol/kg, day 6) of the same compound?
Its value is 100.

What about the “survival of mice in S. pullorum lethal model” value (S. pullorum CVCC533 [2]; 1 μmol/kg, day 7) of the same compound?
The value was 100.

And the “bacteria counted in the organs of mice infected with S. pullorum” value (“bacteria counted … with S. pullorum” below) (S. pullorum CVCC533 [3]; Kidney, mean)?
Its value is 3.299.

And the “bacteria counted … with S. pullorum” value (S. pullorum CVCC533 [3]; Liver, replicate 1)?
Its value is 3.641.

What about the “bacteria counted … with S. pullorum” value (S. pullorum CVCC533 [3]; Liver, replicate 2) of the same compound?
Its value is 4.221.

What about the “bacteria counted … with S. pullorum” value (S. pullorum CVCC533 [3]; Lung, mean) of the same compound?
Its value is 3.527.

And the “bacteria counted … with S. pullorum” value (S. pullorum CVCC533 [3]; Spleen, replicate 1)?
Its value is 4.255.

What about the “bacteria counted … with S. pullorum” value (S. pullorum CVCC533 [3]; Spleen, replicate 2) of the same compound?
The value was 4.222.

And the “bacteria counted … with S. pullorum” value (S. pullorum CVCC533 [3]; Spleen, replicate 3)?
Its value is 3.905.

And the “Decrease of bacterial count in kidneys” value (S. pullorum CVCC533 [3]; [8])?
The value was 40.20%.

What about the “Decrease of bacterial count in livers” value (S. pullorum CVCC533 [3]; [8]) of the same compound?
The value was 31.66%.

What about the “Decrease of bacterial count in lungs” value (S. pullorum CVCC533 [3]; [8]) of the same compound?
Its value is 43.65%.

What about the “Decrease of bacterial count in spleens” value (S. pullorum CVCC533 [3]; [8]) of the same compound?
Its value is 47.75%.

And the “Decrease of serum IL-1β level” value (E. coli 0111:B4 LPS; 2 h)?
The value was 9.13%.

What about the “Decrease of serum IL-6 level” value (E. coli 0111:B4 LPS; 2 h) of the same compound?
The value was 30.83%.

What about the “Decrease of serum IL-10 level” value (E. coli 0111:B4 LPS; 2 h) of the same compound?
Its value is 15.33%.

What about the “Decrease of serum TNF-α level” value (E. coli 0111:B4 LPS; 2 h) of the same compound?
The value was 1.78%.

And the “levels of IL-1β in sera” value (E. coli 0111:B4 LPS; 2 h after treatment)?
The value was 87.9333.

What about the “levels of TNF-α in sera” value (E. coli 0111:B4 LPS; 2 h after treatment) of the same compound?
Its value is 153.

And the “Decrease of serum IL-1β level” value (E. coli 0111:B4 LPS; 8 h)?
Its value is 0.07%.

What about the “Decrease of serum IL-6 level” value (E. coli 0111:B4 LPS; 8 h) of the same compound?
Its value is -0.24%.

What about the “Decrease of serum IL-10 level” value (E. coli 0111:B4 LPS; 8 h) of the same compound?
The value was 0.13%.

What about the “Decrease of serum TNF-α level” value (E. coli 0111:B4 LPS; 8 h) of the same compound?
The value was -0.37%.

And the “levels of IL-1β in sera” value (E. coli 0111:B4 LPS; 8 h after treatment)?
The value was 171.167.

What about the “levels of TNF-α in sera” value (E. coli 0111:B4 LPS; 8 h after treatment) of the same compound?
Its value is 559.733.

What about the “Organ injury, histopathology” value (S. pullorum CVCC533 [4]) of the same compound?
The value was “apparently less damage of liver, spleen, kidney and lung”.

What does the source list for polymyxin B [PMB]?
survival of mice in E. coli lethal model (E. coli CVCC195 [5]; 0.125 μmol/kg, day 0): 100; survival of mice in E. coli lethal model (E. coli CVCC195 [5]; 0.125 μmol/kg, day 1): 80; survival of mice in E. coli lethal model (E. coli CVCC195 [5]; 0.125 μmol/kg, day 2): 60; survival of mice in E. coli lethal model (E. coli CVCC195 [5]; 0.125 μmol/kg, day 3): 30; survival of mice in E. coli lethal model (E. coli CVCC195 [5]; 0.125 μmol/kg, day 4): 30; survival of mice in E. coli lethal model (E. coli CVCC195 [5]; 0.125 μmol/kg, day 5): 30; survival of mice in E. coli lethal model (E. coli CVCC195 [5]; 0.125 μmol/kg, day 6): 30; survival of mice in E. coli lethal model (E. coli CVCC195 [5]; 0.125 μmol/kg, day 7): 30; Survival rate of mice (E. coli CVCC195 [5]; 0.25 μmol/kg i.p. at 0.5 h and 8 h, 7 d): 100%; survival of mice in E. coli lethal model (E. coli CVCC195 [5]; 0.25 μmol/kg, day 0): 100; survival of mice in E. coli lethal model (E. coli CVCC195 [5]; 0.25 μmol/kg, day 1): 100; survival of mice in E. coli lethal model (E. coli CVCC195 [5]; 0.25 μmol/kg, day 2): 100; survival of mice in E. coli lethal model (E. coli CVCC195 [5]; 0.25 μmol/kg, day 3): 100; survival of mice in E. coli lethal model (E. coli CVCC195 [5]; 0.25 μmol/kg, day 4): 100; survival of mice in E. coli lethal model (E. coli CVCC195 [5]; 0.25 μmol/kg, day 5): 100; survival of mice in E. coli lethal model (E. coli CVCC195 [5]; 0.25 μmol/kg, day 6): 100; survival of mice in E. coli lethal model (E. coli CVCC195 [5]; 0.25 μmol/kg, day 7): 100; bacteria counted in the organs of mice infected with E. coli (E. coli CVCC195 [6]; Kidney): 3.851; bacteria counted in the organs of mice infected with E. coli (E. coli CVCC195 [6]; Liver): 3.743; bacteria counted in the organs of mice infected with E. coli (E. coli CVCC195 [6]; Lung): 3.796; bacteria counted in the organs of mice infected with E. coli (E. coli CVCC195 [6]; Spleen): 3.605; levels of TNF-α in sera (E. coli 0111:B4 LPS; 2 h after treatment): 99.8667; levels of TNF-α in sera (E. coli 0111:B4 LPS; 8 h after treatment): 239.767; Organ injury, histopathology (E. coli CVCC195 [7]): apparently less damage of liver, spleen, kidney and lung
